Measurements from patent US20260167620A1, “MULTIFUNCTIONAL COMPOUND CAPABLE OF DEGRADING BTK KINASE, AND COMPOSITION AND USE” (HANGZHOU HEALZEN THERAPEUTICS CO., LTD., priority 2021, published 2026).

Target: T1, BTK (Homo sapiens, UniProt Q06187)
T1 construct: endogenous in cells; host or cells: Mino cells
Assay: BTK degradation activity test in Mino cells (Westernblot or Elisa)
Type: cell-based
Details: 24-72 h incubation
Description: The Mino cell line cells are 0.5˜1 million/well in 6-well plates. The compounds are diluted to different concentrations, added to the plate, and after 24-72 h of incubation, the cells are collected. After the cells were lysed, the total protein concentration in each well was determined with a BCA kit. The amount of BTK is determined using the Westernblot or Elisa method.

T1 sequence (Q06187 whole entry): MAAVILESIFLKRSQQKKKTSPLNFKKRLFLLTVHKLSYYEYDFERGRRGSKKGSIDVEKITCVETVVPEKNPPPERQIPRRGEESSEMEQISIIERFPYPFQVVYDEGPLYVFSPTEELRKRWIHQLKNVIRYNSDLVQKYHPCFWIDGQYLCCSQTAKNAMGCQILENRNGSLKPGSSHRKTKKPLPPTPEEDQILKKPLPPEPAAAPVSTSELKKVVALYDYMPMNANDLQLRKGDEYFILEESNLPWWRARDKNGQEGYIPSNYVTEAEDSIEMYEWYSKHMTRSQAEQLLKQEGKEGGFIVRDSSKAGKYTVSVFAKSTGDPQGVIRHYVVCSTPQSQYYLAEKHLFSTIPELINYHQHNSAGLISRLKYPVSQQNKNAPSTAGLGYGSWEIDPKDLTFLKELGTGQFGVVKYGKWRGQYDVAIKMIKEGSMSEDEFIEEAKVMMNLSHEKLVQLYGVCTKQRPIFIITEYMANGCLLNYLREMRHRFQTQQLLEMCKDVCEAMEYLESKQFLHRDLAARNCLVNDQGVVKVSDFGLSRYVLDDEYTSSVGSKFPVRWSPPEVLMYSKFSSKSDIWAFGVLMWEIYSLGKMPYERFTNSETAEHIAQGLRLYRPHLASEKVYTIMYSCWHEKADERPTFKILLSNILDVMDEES

DC50, < 10 nM:
NC(=O)c1nnc(N2CCCCC2)nc1Nc1ccc(N2CCN(CC3CN(c4ccc5c(c4)C(=O)N(C4CCC(=O)NC4=O)C5=O)C3)CC2)cc1 (stereo not drawn) [Compound 006, 5-((4-(4-((1-(2-(2,6-dioxopiperidin-3-yl)-1,3-dioxoisoindolin-5-yl)azetidin-3-yl)methyl)piperazin-1-yl)phenyl)amino)-3-(piperidin-1-yl)-1,2,4-triazine-6-carboxamide]
NC(=O)c1nnc(N2CCCCC2)nc1Nc1ccc(C2CCN(CC3CN(c4ccc5c(c4)C(=O)N(C4CCC(=O)NC4=O)C5=O)C3)CC2)cc1 (stereo not drawn) [Compound 008, 5-((4-(1-((1-(2-(2,6-dioxopiperidin-3-yl)-1,3-dioxoisoindolin-5-yl)azetidin-3-yl)methyl)piperidin-4-yl)phenyl)amino)-3-(piperidin-1-yl)-1,2,4-triazine-6-carboxamide]
NC(=O)c1nnc(N2CCCCC2)nc1Nc1ccc(C2CCN(CC3CCN(c4ccc5c(c4)CN(C4CCC(=O)NC4=O)C5=O)C3)CC2)cc1 (stereo not drawn) [Compound 009, 5-((4-(1-((1-(2-(2,6-dioxopiperidin-3-yl)-1-oxoisoindolin-5-yl)pyrrolidin-3-yl)methyl)piperidin-4-yl)phenyl)amino)-3-(piperidin-1-yl)-1,2,4-triazine-6-carboxamide]
NC(=O)c1nnc(N2CCCCC2)nc1Nc1ccc(C2CCN(CC3CCN(c4cc5c(cc4F)C(=O)N(C4CCC(=O)NC4=O)C5)C3)CC2)cc1 (stereo not drawn) [Compound 010, 5-((4-(1-((1-(2-(2,6-dioxopiperidin-3-yl)-6-fluoro-1-oxoisoindolin-5-yl)pyrrolidin-3-yl)methyl)piperidin-4-yl)phenyl)amino)-3-(piperidin-1-yl)-1,2,4-triazine-6-carboxamide]
NC(=O)c1nnc(N2CCC[C@@H](O)C2)nc1Nc1ccc(C2CCN(CC3CCN(c4ccc5c(c4)C(=O)N(C4CCC(=O)NC4=O)C5=O)C3)CC2)cc1 (stereo partly drawn) [Compound 015, 5-((4-(1-((1-(2-(2,6-dioxopiperidin-3-yl)-1,3-dioxoisoindolin-5-yl)pyrrolidin-3-yl)methyl)piperidin-4-yl)phenyl)amino)-3-((R)-3-hydroxypiperidin-1-yl)-1,2,4-triazine-6-carboxamide]
CC[C@H](Nc1nnc(C(N)=O)c(Nc2ccc(C3CCN(CC4CCN(c5ccc6c(c5)C(=O)N(C5CCC(=O)NC5=O)C6=O)C4)CC3)cc2)n1)C(N)=O (stereo partly drawn) [Compound 017, 3-(((S)-1-amino-1-oxobutan-2-yl)amino)-5-((4-(1-((1-(2-(2,6-dioxopiperidin-3-yl)-1,3-dioxoisoindolin-5-yl)pyrrolidin-3-yl)methyl)piperidin-4-yl)phenyl)amino)-1,2,4-triazine-6-carboxamide]
CN1CCN(c2nnc(C(N)=O)c(Nc3ccc(C4CCN(CC5CCN(c6ccc7c(c6)C(=O)N(C6CCC(=O)NC6=O)C7=O)C5)CC4)cc3)n2)CC1 (stereo not drawn) [Compound 018, 5-((4-(1-((1-(2-(2,6-dioxopiperidin-3-yl)-1,3-dioxoisoindolin-5-yl)pyrrolidin-3-yl)methyl)piperidin-4-yl)phenyl)amino)-3-(4-methylpiperazin-1-yl)-1,2,4-triazine-6-carboxamide]
N#Cc1cccc(Nc2nnc(C(N)=O)c(Nc3ccc(C4CCN(CC5CCN(c6ccc7c(c6)C(=O)N(C6CCC(=O)NC6=O)C7=O)C5)CC4)cc3)n2)c1 (stereo not drawn) [Compound 020, 3-((3-cyanophenyl)amino)-5-((4-(1-((1-(2-(2,6-dioxopiperidin-3-yl)-1,3-dioxoisoindolin-5-yl)pyrrolidin-3-yl)methyl)piperidin-4-yl)phenyl)amino)-1,2,4-triazine-6-carboxamide]
NC(=O)c1nnc(Nc2ccccn2)nc1Nc1ccc(C2CCN(CC3CCN(c4ccc5c(c4)C(=O)N(C4CCC(=O)NC4=O)C5=O)C3)CC2)cc1 (stereo not drawn) [Compound 021, 5-((4-(1-((1-(2-(2,6-dioxopiperidin-3-yl)-1,3-dioxoisoindolin-5-yl)pyrrolidin-3-yl)methyl)piperidin-4-yl)phenyl)amino)-3-(pyridin-2-ylamino)-1,2,4-triazine-6-carboxamide]
NC(=O)c1nnc(N2CC[C@@H](O)C2)nc1Nc1ccc(C2CCN(CC3CCN(c4ccc5c(c4)C(=O)N(C4CCC(=O)NC4=O)C5=O)C3)CC2)cc1 (stereo partly drawn) [Compound 022, 5-((4-(1-((1-(2-(2,6-dioxopiperidin-3-yl)-1,3-dioxoisoindolin-5-yl)pyrrolidin-3-yl)methyl)piperidin-4-yl)phenyl)amino)-3-((R)-3-hydroxypyrrolidin-1-yl)-1,2,4-triazine-6-carboxamide]
NC(=O)c1nnc(-c2nccs2)nc1Nc1ccc(C2CCN(CC3CCN(c4ccc5c(c4)C(=O)N(C4CCC(=O)NC4=O)C5=O)C3)CC2)cc1 (stereo not drawn) [Compound 024, 5-((4-(1-((1-(2-(2,6-dioxopiperidin-3-yl)-1,3-dioxoisoindolin-5-yl)pyrrolidin-3-yl)methyl)piperidin-4-yl)phenyl)amino)-3-(thiazol-2-yl)-1,2,4-triazine-6-carboxamide]
NC(=O)c1nnc(-c2ncc[nH]2)nc1Nc1ccc(C2CCN(CC3CCN(c4ccc5c(c4)C(=O)N(C4CCC(=O)NC4=O)C5=O)C3)CC2)cc1 (stereo not drawn) [Compound 025, 5-((4-(1-((1-(2-(2,6-dioxopiperidin-3-yl)-1,3-dioxoisoindolin-5-yl)pyrrolidin-3-yl)methyl)piperidin-4-yl)phenyl)amino)-3-(1H-imidazol-2-yl)-1,2,4-triazine-6-carboxamide]
NC(=O)c1nnc(-c2cccnc2)nc1Nc1ccc(C2CCN(CC3CCN(c4ccc5c(c4)C(=O)N(C4CCC(=O)NC4=O)C5=O)C3)CC2)cc1 (stereo not drawn) [Compound 026, 5-((4-(1-((1-(2-(2,6-dioxopiperidin-3-yl)-1,3-dioxoisoindolin-5-yl)pyrrolidin-3-yl)methyl)piperidin-4-yl)phenyl)amino)-3-(pyridin-3-yl)-1,2,4-triazine-6-carboxamide]
NC(=O)c1nnc(Oc2cccc(O)c2)nc1Nc1ccc(C2CCN(CC3CCN(c4ccc5c(c4)C(=O)N(C4CCC(=O)NC4=O)C5=O)C3)CC2)cc1 (stereo not drawn) [Compound 027, 5-((4-(m-((1-(2-(2,6-dioxopiperidin-3-yl)-1,3-dioxoisoindolin-5-yl)pyrrolidin-3-yl)methyl)piperidin-4-yl)phenyl)amino)-3-(3-hydroxyphenoxy)-1,2,4-triazine-6-carboxamide]
NC(=O)c1nnc(Oc2cccc(F)c2F)nc1Nc1ccc(C2CCN(CC3CCN(c4ccc5c(c4)C(=O)N(C4CCC(=O)NC4=O)C5=O)C3)CC2)cc1 (stereo not drawn) [Compound 028, 3-(2,3-difluorophenoxy)-5-((4-(1-((1-(2-(2,6-dioxopiperidin-3-yl)-1,3-dioxoisoindolin-5-yl)pyrrolidin-3-yl)methyl)piperidin-4-yl)phenyl)amino)-1,2,4-triazine-6-carboxamide]
NC(=O)c1nnc(N2CCC[C@@H](N)C2)nc1Nc1ccc(C2CCN(CC3CCN(c4ccc5c(c4)C(=O)N(C4CCC(=O)NC4=O)C5=O)C3)CC2)cc1 (stereo partly drawn) [Compound 029, 3-((R)-3-aminopiperidin-1-yl)-5-((4-(1-((1-(2-(2,6-dioxopiperidin-3-yl)-1,3-dioxoisoindolin-5-yl)pyrrolidin-3-yl)methyl)piperidin-4-yl)phenyl)amino)-1,2,4-triazine-6-carboxamide]
NC(=O)c1nnc(N[C@H]2CCCC[C@H]2N)nc1Nc1ccc(C2CCN(CC3CCN(c4ccc5c(c4)C(=O)N(C4CCC(=O)NC4=O)C5=O)C3)CC2)cc1 (stereo partly drawn) [Compound 030, 3-(((1S,2R)-2-aminocyclohexyl)amino)-5-((4-(1-((1-(2-(2,6-dioxopiperidin-3-yl)-1,3-dioxoisoindolin-5-yl)pyrrolidin-3-yl)methyl)piperidin-4-yl)phenyl)amino)-1,2,4-triazine-6-carboxamide]
NC(=O)c1nnc(N2CCNCC2)nc1Nc1ccc(C2CCN(CC3CCN(c4ccc5c(c4)C(=O)N(C4CCC(=O)NC4=O)C5=O)C3)CC2)cc1 (stereo not drawn) [Compound 031, 5-((4-(1-((1-(2-(2,6-dioxopiperidin-3-yl)-1,3-dioxoisoindolin-5-yl)pyrrolidin-3-yl)methyl)piperidin-4-yl)phenyl)amino)-3-(piperazin-1-yl)-1,2,4-triazine-6-carboxamide]
NC(=O)c1cnc(N[C@H]2CCCC[C@H]2N)nc1Nc1ccc(C2CCN(CC3CCN(c4ccc5c(c4)C(=O)N(C4CCC(=O)NC4=O)C5=O)C3)CC2)cc1 (stereo partly drawn) [Compound 032, 2-(((1S,2R)-2-aminocyclohexyl)amino)-4-((4-(1-((1-(2-(2,6-dioxopiperidin-3-yl)-1,3-dioxoisoindolin-5-yl)pyrrolidin-3-yl)methyl)piperidin-4-yl)phenyl)amino) pyrimidine-5-carboxamide]
NC(=O)c1cnc(N2CCCCC2)nc1Nc1ccc(N2CCN(CC3CCN(c4ccc5c(c4)C(=O)N(C4CCC(=O)NC4=O)C5=O)C3)CC2)c(F)c1 (stereo not drawn) [Compound 034, 4-((4-(4-((1-(2-(2,6-dioxopiperidin-3-yl)-1,3-dioxoisoindolin-5-yl)pyrrolidin-3-yl)methyl)piperazin-1-yl)-3-fluorophenyl)amino)-2-(piperidin-1-yl) pyrimidine-5-carboxamide]
NC(=O)c1cnc(N2CCC[C@@H](O)C2)nc1Nc1ccc(C2CCN(CC3CCN(c4ccc5c(c4)C(=O)N(C4CCC(=O)NC4=O)C5=O)C3)CC2)cc1 (stereo partly drawn) [Compound 035, 4-((4-(1-((1-(2-(2,6-dioxopiperidin-3-yl)-1,3-dioxoisoindolin-5-yl)pyrrolidin-3-yl)methyl)piperidin-4-yl)phenyl)amino)-2-((R)-3-hydroxypiperidin-1-yl) pyrimidine-5-carboxamide]
